What was measured:
[1] = target: T1, 72 kDa type IV collagenase (Homo sapiens, UniProt P08253); assay: Inhibition of human matrix metalloprotease-2
[2] = target: T2, Interstitial collagenase (Homo sapiens, UniProt P03956); assay: Inhibition of human matrix metalloprotease-1
T2 sequence (P03956 whole entry): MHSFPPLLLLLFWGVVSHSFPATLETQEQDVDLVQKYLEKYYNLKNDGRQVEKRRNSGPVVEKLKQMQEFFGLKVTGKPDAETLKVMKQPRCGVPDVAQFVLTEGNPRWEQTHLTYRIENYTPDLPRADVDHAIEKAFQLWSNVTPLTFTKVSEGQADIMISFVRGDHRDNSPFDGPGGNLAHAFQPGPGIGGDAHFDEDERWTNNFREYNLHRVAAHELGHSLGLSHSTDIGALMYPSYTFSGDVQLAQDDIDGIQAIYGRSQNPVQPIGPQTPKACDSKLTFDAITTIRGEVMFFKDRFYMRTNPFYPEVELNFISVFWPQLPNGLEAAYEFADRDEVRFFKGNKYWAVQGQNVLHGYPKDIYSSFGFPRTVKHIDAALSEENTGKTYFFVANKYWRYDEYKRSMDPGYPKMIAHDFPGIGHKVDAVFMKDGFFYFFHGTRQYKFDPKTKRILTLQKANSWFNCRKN

[3] = target: Matrix metalloproteinase-9 (Homo sapiens, UniProt P14780); assay: Inhibition of human matrix metalloprotease-9
[4] = target: Neutrophil collagenase (Homo sapiens, UniProt P22894); assay: Inhibition of human matrix metalloprotease-8
[5] = target: T1, 72 kDa type IV collagenase; assay: Inhibition of human Matrix metalloprotease-2
[6] = target: Stromelysin-1 (Homo sapiens, UniProt P08254); assay: Inhibition of human Matrix metalloprotease-3
Stromelysin-1, sequence (P08254 whole entry): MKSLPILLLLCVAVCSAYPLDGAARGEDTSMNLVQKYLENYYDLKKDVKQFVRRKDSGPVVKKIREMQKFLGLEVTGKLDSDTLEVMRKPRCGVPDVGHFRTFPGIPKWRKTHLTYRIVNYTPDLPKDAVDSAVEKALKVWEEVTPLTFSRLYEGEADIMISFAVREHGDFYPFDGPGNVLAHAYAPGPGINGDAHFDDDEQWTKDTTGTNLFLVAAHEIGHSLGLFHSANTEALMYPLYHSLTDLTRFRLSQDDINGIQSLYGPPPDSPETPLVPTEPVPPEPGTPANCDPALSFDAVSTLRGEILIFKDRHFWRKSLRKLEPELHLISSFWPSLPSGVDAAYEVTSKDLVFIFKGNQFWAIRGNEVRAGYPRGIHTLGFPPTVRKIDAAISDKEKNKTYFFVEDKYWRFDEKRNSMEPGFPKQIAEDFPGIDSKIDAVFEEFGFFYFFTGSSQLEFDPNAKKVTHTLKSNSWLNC

Neutrophil collagenase, sequence (P22894 whole entry): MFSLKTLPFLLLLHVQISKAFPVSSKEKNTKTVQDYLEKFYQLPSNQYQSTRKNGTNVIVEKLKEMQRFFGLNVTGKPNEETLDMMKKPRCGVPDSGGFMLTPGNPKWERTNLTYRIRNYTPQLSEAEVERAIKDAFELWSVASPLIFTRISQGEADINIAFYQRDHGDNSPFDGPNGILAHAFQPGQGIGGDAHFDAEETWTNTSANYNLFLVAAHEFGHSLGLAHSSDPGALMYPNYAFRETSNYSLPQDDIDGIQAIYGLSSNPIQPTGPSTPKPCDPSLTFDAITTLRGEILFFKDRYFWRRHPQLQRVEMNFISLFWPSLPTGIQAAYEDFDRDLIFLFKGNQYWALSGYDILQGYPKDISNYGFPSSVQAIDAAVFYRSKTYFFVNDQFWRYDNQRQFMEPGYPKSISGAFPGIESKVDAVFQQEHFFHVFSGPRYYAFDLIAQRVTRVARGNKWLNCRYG
Matrix metalloproteinase-9, sequence (P14780 whole entry): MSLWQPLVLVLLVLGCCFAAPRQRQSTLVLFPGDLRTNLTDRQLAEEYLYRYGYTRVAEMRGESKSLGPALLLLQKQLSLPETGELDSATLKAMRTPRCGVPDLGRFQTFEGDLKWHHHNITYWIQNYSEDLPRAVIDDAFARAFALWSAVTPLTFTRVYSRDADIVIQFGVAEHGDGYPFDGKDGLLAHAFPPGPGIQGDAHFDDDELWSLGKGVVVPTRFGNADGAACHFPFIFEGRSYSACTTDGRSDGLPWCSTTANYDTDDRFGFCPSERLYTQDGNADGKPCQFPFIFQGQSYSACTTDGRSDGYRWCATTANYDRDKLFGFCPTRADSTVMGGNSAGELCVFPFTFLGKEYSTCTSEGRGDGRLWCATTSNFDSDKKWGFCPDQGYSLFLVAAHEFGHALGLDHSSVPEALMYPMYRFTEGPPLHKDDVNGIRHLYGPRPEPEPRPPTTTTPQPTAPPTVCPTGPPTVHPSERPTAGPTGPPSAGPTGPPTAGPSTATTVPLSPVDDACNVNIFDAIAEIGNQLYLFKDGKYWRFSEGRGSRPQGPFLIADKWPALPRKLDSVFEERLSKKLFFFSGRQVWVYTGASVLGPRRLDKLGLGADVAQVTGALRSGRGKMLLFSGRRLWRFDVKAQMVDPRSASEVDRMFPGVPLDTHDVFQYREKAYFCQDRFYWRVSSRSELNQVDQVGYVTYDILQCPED
T1 sequence (P08253 whole entry): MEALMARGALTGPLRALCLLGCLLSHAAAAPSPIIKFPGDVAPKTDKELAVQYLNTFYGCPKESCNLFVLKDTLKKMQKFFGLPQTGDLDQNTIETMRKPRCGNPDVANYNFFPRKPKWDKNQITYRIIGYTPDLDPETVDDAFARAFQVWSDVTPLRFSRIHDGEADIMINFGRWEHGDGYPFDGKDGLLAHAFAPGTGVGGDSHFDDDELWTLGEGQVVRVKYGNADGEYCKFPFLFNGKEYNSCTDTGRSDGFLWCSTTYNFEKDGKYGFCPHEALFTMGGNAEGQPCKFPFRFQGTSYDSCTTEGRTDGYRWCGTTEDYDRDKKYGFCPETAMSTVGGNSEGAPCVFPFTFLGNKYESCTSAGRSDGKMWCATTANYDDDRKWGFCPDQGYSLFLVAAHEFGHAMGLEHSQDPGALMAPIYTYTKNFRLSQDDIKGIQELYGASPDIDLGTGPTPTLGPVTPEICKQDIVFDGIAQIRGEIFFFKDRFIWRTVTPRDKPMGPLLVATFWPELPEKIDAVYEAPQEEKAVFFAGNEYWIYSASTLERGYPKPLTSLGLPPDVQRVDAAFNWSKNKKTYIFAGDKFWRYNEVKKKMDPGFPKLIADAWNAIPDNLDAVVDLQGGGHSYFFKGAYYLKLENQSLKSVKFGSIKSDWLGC

SMILES: C[C@H](NC(=O)[C@H](Cc1ccccc1)NS(=O)(=O)c1cccc2c(N(C)C)cccc12)C(=O)Nc1n[nH]c(=S)s1
- Ki [1]: 40 µM
- Ki [2]: 87 µM
- Ki [3]: 50 µM
- Ki [4]: 48 µM

SMILES: C[C@H](NC(=O)[C@H](Cc1ccccc1)NS(=O)(=O)c1cccc2ccccc12)C(=O)Nc1n[nH]c(=S)s1
- Ki [1]: 36 µM
- Ki [2]: 80 µM
- Ki [3]: 44 µM

SMILES: C[C@H](NC(=O)[C@H](Cc1ccccc1)NS(=O)(=O)c1ccc(Br)cc1)C(=O)Nc1n[nH]c(=S)s1
- Ki [1]: 15 µM
- Ki [2]: 24 µM
- Ki [3]: 21 µM

SMILES: O=C(O)C(Cc1ccccc1)NS(=O)(=O)c1ccc(-c2ccc(Cl)cc2)cc1 (stereo not drawn)
- Ki [5]: 2 µM

SMILES: C[C@H](NC(=O)[C@H](Cc1ccccc1)NS(=O)(=O)c1c(F)c(F)c(F)c(F)c1F)C(=O)Nc1n[nH]c(=S)s1
- Ki [1]: 6 µM
- Ki [3]: 2 µM
- Ki [4]: 1 µM

SMILES: C[C@H](NC(=O)[C@H](Cc1ccccc1)NS(=O)(=O)c1ccc(I)cc1)C(=O)Nc1n[nH]c(=S)s1
- Ki [1]: 17 µM
- Ki [2]: 21 µM
- Ki [3]: 18 µM

SMILES: C[C@H](NC(=O)[C@H](Cc1ccccc1)NS(=O)(=O)c1cc(Cl)ccc1Cl)C(=O)Nc1n[nH]c(=S)s1
- Ki [1]: 10 µM
- Ki [2]: 19 µM
- Ki [3]: 17 µM
- Ki [4]: 9 µM

SMILES: C[C@H](NC(=O)[C@H](Cc1ccccc1)NS(=O)(=O)c1ccc(F)cc1)C(=O)Nc1n[nH]c(=S)s1
- Ki [1]: 17 µM
- Ki [2]: 19 µM
- Ki [3]: 14 µM

SMILES: O=C(O)C(Cc1ccccc1)NS(=O)(=O)c1ccc(-c2ccc(Br)cc2)cc1 (stereo not drawn)
- Ki [5]: 2 µM

SMILES: COc1ccc(S(=O)(=O)N[C@@H](Cc2ccccc2)C(=O)N[C@@H](C)C(=O)Nc2n[nH]c(=S)s2)cc1
- Ki [1]: 18 µM
- Ki [2]: 28 µM
- Ki [3]: 21 µM
- Ki [4]: 20 µM

SMILES: C[C@H](NC(=O)[C@H](Cc1ccccc1)NS(=O)(=O)c1cccc2cccnc12)C(=O)Nc1n[nH]c(=S)s1
- Ki [1]: 41 µM
- Ki [2]: 74 µM
- Ki [3]: 45 µM
- Ki [4]: 39 µM

SMILES: C[C@H](NC(=O)[C@H](Cc1ccccc1)NS(=O)(=O)c1cccc([N+](=O)[O-])c1)C(=O)Nc1n[nH]c(=S)s1
- Ki [1]: 12 µM
- Ki [2]: 18 µM
- Ki [3]: 18 µM
- Ki [4]: 13 µM

SMILES: C[C@H](NC(=O)[C@H](Cc1ccccc1)NS(=O)(=O)c1ccccc1[N+](=O)[O-])C(=O)Nc1n[nH]c(=S)s1
- Ki [1]: 15 µM
- Ki [2]: 29 µM
- Ki [3]: 14 µM
- Ki [4]: 17 µM

SMILES: C[C@H](NC(=O)[C@H](Cc1ccccc1)NS(=O)(=O)c1cccs1)C(=O)Nc1n[nH]c(=S)s1
- Ki [1]: 13 µM
- Ki [2]: 14 µM
- Ki [3]: 10 µM

SMILES: C[C@H](NC(=O)[C@H](Cc1ccccc1)NS(=O)(=O)c1ccccc1)C(=O)Nc1n[nH]c(=S)s1
- Ki [1]: 18 µM
- Ki [2]: 22 µM
- Ki [3]: 15 µM
- Ki [4]: 24 µM

SMILES: O=C(O)C(Cc1ccccc1)NS(=O)(=O)c1ccc(-c2ccccc2)cc1 (stereo not drawn)
- Ki [5]: 2 µM

SMILES: C[C@H](NC(=O)[C@H](Cc1ccccc1)NS(=O)(=O)c1cccc(C(F)(F)F)c1)C(=O)Nc1n[nH]c(=S)s1
- Ki [1]: 11 µM
- Ki [2]: 13 µM
- Ki [3]: 5 µM

SMILES: Cc1cc(C)c(S(=O)(=O)N[C@@H](Cc2ccccc2)C(=O)N[C@@H](C)C(=O)Nc2n[nH]c(=S)s2)c(C)c1
- Ki [1]: 24 µM
- Ki [2]: 33 µM
- Ki [3]: 29 µM
- Ki [4]: 25 µM

SMILES: C[C@H](NC(=O)[C@H](Cc1ccccc1)NS(=O)(=O)c1ccc2ccccc2c1)C(=O)Nc1n[nH]c(=S)s1
- Ki [1]: 33 µM
- Ki [2]: 72 µM
- Ki [3]: 53 µM
- Ki [4]: 45 µM

SMILES: Cc1ccc(S(=O)(=O)NC(=O)N[C@@H](Cc2ccccc2)C(=O)N[C@@H](C)C(=O)Nc2n[nH]c(=S)s2)cc1
- Ki [1]: 7 µM
- Ki [2]: 15 µM
- Ki [3]: 5 µM
- Ki [4]: 5 µM

SMILES: CC(C)C(NS(=O)(=O)c1ccc(-c2ccccc2)cc1)C(=O)O (stereo not drawn)
- Ki [5]: 2 µM

SMILES: C[C@H](NC(=O)[C@H](Cc1ccccc1)NC(=O)NS(=O)(=O)c1ccc(F)cc1)C(=O)Nc1n[nH]c(=S)s1
- Ki [1]: 2 µM
- Ki [2]: 12 µM
- Ki [3]: 0.3 µM
- Ki [4]: 0.1 µM

SMILES: C[C@H](NC(=O)[C@H](Cc1ccccc1)NC(=O)NS(=O)(=O)c1ccccc1)C(=O)Nc1n[nH]c(=S)s1
- Ki [1]: 5 µM
- Ki [2]: 19 µM
- Ki [3]: 4 µM

SMILES: Cc1ccc(S(=O)(=O)N[C@@H](Cc2ccccc2)C(=O)N[C@@H](C)C(=O)Nc2n[nH]c(=S)s2)cc1
- Ki [1]: 20 µM
- Ki [2]: 30 µM
- Ki [3]: 20 µM
- Ki [4]: 23 µM

SMILES: Cc1ccccc1S(=O)(=O)NC(=O)N[C@@H](Cc1ccccc1)C(=O)N[C@@H](C)C(=O)Nc1n[nH]c(=S)s1
- Ki [1]: 8 µM
- Ki [2]: 19 µM
- Ki [3]: 7 µM
- Ki [4]: 6 µM

SMILES: C[C@H](NC(=O)[C@H](Cc1ccccc1)NS(=O)(=O)c1ccc(Cl)cc1)C(=O)Nc1n[nH]c(=S)s1
- Ki [1]: 16 µM
- Ki [2]: 20 µM
- Ki [3]: 15 µM

SMILES: CC(C)C(NS(=O)(=O)c1ccc(-c2ccc(Cl)cc2)cc1)C(=O)O (stereo not drawn)
- Ki [5]: 2 µM

SMILES: O=C(O)[C@H](Cc1c[nH]c2ccccc12)NS(=O)(=O)c1ccc(N2CCC(c3ccccc3)CC2)cc1
- Ki [6]: 0.019 µM

SMILES: C[C@H](NC(=O)[C@H](Cc1ccccc1)NC(=O)NS(=O)(=O)c1ccc(Cl)cc1)C(=O)Nc1n[nH]c(=S)s1
- Ki [1]: 4 µM
- Ki [2]: 10 µM
- Ki [3]: 0.4 µM
- Ki [4]: 0.2 µM

SMILES: C[C@H](NC(=O)[C@H](Cc1ccccc1)NS(=O)(=O)Cc1ccccc1)C(=O)Nc1n[nH]c(=S)s1
- Ki [1]: 16 µM
- Ki [2]: 24 µM
- Ki [3]: 16 µM

SMILES: CC(=O)Nc1ccc(S(=O)(=O)N[C@@H](Cc2ccccc2)C(=O)N[C@@H](C)C(=O)Nc2n[nH]c(=S)s2)cc1
- Ki [1]: 8 µM
- Ki [2]: 14 µM
- Ki [3]: 10 µM

SMILES: C[C@H](NC(=O)[C@H](Cc1ccccc1)NS(=O)(=O)c1ccc([N+](=O)[O-])cc1)C(=O)Nc1n[nH]c(=S)s1
- Ki [1]: 12 µM
- Ki [2]: 15 µM
- Ki [3]: 18 µM
- Ki [4]: 10 µM

SMILES: C[C@H](NC(=O)[C@H](Cc1ccccc1)NS(=O)(=O)CC12CCC(CC1=O)C2(C)C)C(=O)Nc1n[nH]c(=S)s1 (stereo partly drawn)
- Ki [1]: 35 µM
- Ki [2]: 69 µM
- Ki [3]: 40 µM
- Ki [4]: 34 µM
